Experimental data: patent EP0235408B1, “Pharmaceutical composition and treatment” (THE UNIVERSITY OF TORONTO I[…], priority 1986, dated 1987)
Values joined by “and” are separate entries in the source; they are usually repeats but may differ in a detail not shown here. Identical values can stand only once. Counter-ions that a name gives are not always drawn. Marks after values point to notes of the source that are not given here.

Tests used:
[1] = tested on: laboratory rats; assay: Effects on sleep and righting time, oral administration (Example 5); assay type: in vivo; settings: 10 mM/kg body weight; for TIME SLEPT (mins) AVG 1: average based only on the animals which slept
Protocol: The effects on sleep and- righting time of the oral and in traperitoneal administration of the prior art compound hydroxybutyrate sodium salt (GHB) and 4-acetoxybutanoate (EAB) according to the invention were determined, using groups of labotatory rats.
In a first experiment, GHB was administered at high dosage level (25 mM/Kg or 3 g/kg body weight) orally to three animals. […] The most likely reason is that oral GHB is poorly absorbed.
In a second experiment each of GHB and EAB was given to separate groups of twelve and eleven animals respectively, by oral administration at the same, lower dosage level of 10 mM/kg body weight.

[2] = tested on: rats; assay: Effects on sleep and righting time, intraperitoneal administration (Example 6); settings: 5 mM/kg body weight; for TIME SLEPT (mins) AVG 1: average based only on the animals which slept; for TIME SLEPT (mins): individual animals, asterisk = animal could be placed on its back for the time indicated, DNS = did not sleep
[3] = tested on: laboratory rats; assay: Drug-induced sleep tracked by electroencephalograph (Example 4); assay type: in vivo; settings: for induced sleep (duration): 500 mg per kilogram, EEG
Protocol: The preferred compound according to the invention was administered to labotatory rats, and the sleep of the animals induced by the drug was tracked by means of an electroencephalograph.
Compound ethyl 4-acetoxybutanoate, administered by mouth at a dosage of 250 mg per kilogram body weight induced sleep for 1 hour 28 minutes. At a dosage of 500 mg per kilogram administered in one case by mouth and in another case intraperitoneally, sleep was induced for 4 hours.
The administration to a similar laboratory rat, intraperitoneally, of a dosage of 500 mg per kilogram body weight of GHB induced sleep for only 1 hour 59 minutes, by contrast.

[4] = Toxicity in animal models; settings: rat, in vivo; laboratory rats; read-out: dose required before a toxic level is reached
Protocol: In tests conducted in animal models, the compound ethyl 4-acetoxybutanoate has evidenced extremely low levels of toxicity. In tests conducted with laboratory rats as reported below, doses as high as 3000 mg per kilogram body weight are required, before a toxic level is reached.

[5] = individual animals, asterisk = animal could be placed on its back for the time indicated, DNS = did not sleep
[6] = 250 or 500 mg per kilogram, by mouth or intraperitoneally
[7] = average of all the rats, whether they slept or not

With `CCOC(=O)CCCOC(C)=O` [EAB, ethyl 4-acetoxybutanoate] the “TIME SLEPT (mins) RANGE” value [1] was 103.9 to 331.6 min, the “animals put to sleep” value [1] was “put all rats to sleep” and the “animals that could be placed on their backs” value [1] was “four of eleven could be placed on their backs for more than five hours”. For the same compound, the “ill effects upon waking” value [1] was “none of the animals exhibited any ill effects”, the “muscle relaxation during sleep” value [1] was “loose and flaccid” and the sign of toxicity [1] was “No sign of toxicity was observed”. The “TIME SLEPT (mins) AVG 1” value [1] was 170.57 min, the “TIME SLEPT” value [1, 5] was 103.90 min and 120.30 min and 106.10 min and 125.75 min and 143.45 min and 120.00 min and 175.80 min and the “TIME SLEPT (mins)” value [1, 5] was 331.60* mins and 311.50* mins and 317.65* mins and 300.20* mins. The “TIME SLEPT (mins) RANGE” value [2] was 39.30 to 259.00 min, the “ill effects upon waking” value [2] was “none of them showed any ill effects” and the “muscle relaxation during sleep” value [2] was “exhibited a high degree of muscle relaxation”. The “TIME SLEPT (mins) AVG 1” value [2] was 126.89 min, the “TIME SLEPT (mins)” value [2] was 51.70* mins and 39.30* mins and 199.65* mins and 141.70* mins and 70.00* mins and 259.00* mins and the “ill effects upon waking” value [3, 6] was “none of the animals exhibited ill effects”. For the same compound, the “muscle relaxation during sleep” value [3, 6] was “the limbs and other body joints were quite flaccid”, the “induced sleep (duration)” value ([3]; by mouth) was 4 h and the “induced sleep (duration)” value ([3]; intraperitoneally) was 4 h. The NOAEL [4] was ≥ 3000 mg/kg.
With `O=C(O)CCCO` [GHB, hydroxybutyrate sodium salt, reference compound] the “TIME SLEPT (mins) RANGE” value [1] was 0 to 74.7 min, the “TIME SLEPT (mins) AVG 1” value [1] was 65.76 min and the “TIME SLEPT (mins) AVG 2” value [1, 7] was 27.40 min. For the same compound, the “TIME SLEPT” value ([1]; individual animals, asterisk = animal could be placed on its back for the time indicated, DNS = did not sleep, sodium salt) was 72.80 min and 64.70 min and 60.80 min and 55.80 min and 74.70 min, the “TIME SLEPT (mins) RANGE” value [2] was 0 to 87.35 min and the “TIME SLEPT (mins) AVG 1” value [2] was 72.04 min. The “TIME SLEPT (mins) AVG 2” value [2, 7] was 48.03 min and the “TIME SLEPT (mins)” value ([2]; sodium salt) was 70.20* mins and 55.40* mins and 75.20* mins and 87.35* mins.
